Test results reported in patent publication US20090111798A1, “5,6-DIHYDRO-1H-PYRIDIN-2-ONE COMPOUNDS” (priority 2006, published 2009).
Where a name gives a salt, the structure may show the parent alone.

Target: NS5B polymerase (Hepatitis C virus genotype 1b, UniProt P26663)
Assay: biochemical
Conditions: NS5B polymerase inhibition; 20 nM enzyme, 75 min at 28° C.
Outline: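 20 nM enzyme with 250 nM biotinylated oligo(rG13)/poly rC, 0.6 μM GTP plus [α-33P]GTP, in pH 7.5 Tris buffer with 5 mM MgCl2, 75 min at 28 °C. Incorporated radioactivity counted on streptavidin plates; IC50 from 4-parameter fit versus uninhibited control.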

NS5B polymerase, sequence (P26663 2420-3010): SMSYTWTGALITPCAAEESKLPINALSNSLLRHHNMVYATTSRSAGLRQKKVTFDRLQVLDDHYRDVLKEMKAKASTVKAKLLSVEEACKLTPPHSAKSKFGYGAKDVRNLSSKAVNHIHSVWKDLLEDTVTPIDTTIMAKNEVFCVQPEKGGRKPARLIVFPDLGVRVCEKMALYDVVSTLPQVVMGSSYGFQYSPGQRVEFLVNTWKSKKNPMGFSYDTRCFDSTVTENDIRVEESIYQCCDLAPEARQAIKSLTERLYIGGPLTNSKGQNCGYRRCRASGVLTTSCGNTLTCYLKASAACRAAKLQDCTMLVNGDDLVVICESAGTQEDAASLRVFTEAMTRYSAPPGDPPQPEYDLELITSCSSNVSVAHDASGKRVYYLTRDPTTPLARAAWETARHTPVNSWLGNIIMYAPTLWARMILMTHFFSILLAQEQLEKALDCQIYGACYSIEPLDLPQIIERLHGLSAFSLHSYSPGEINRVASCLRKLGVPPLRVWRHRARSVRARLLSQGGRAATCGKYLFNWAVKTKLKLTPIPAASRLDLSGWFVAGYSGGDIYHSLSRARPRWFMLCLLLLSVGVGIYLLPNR

SMILES	IC50 [nM]
CC(C)(C)CCN1C(=O)C(C2=NS(=O)(=O)c3cc(NS(C)(=O)=O)ccc3N2)=C(O)C2CCCCCCC21 (stereo not drawn) [Example 35, N-{3-[1-(3,3-Dimethyl-butyl)-4-hydroxy-2-oxo-1,2,4a,5,6,7,8,9,10,10a-decahydro-cycloocta[b]pyridin-3-yl]-1,1-dioxo-1,4-dihydro-1λ^6-benzo[1,2,4]thiadiazin-7-yl]-methanesulfonamide]	1000 to 100000
CN(c1ccc2c(c1)S(=O)(=O)N=C(C1=C(O)C3CCCCCCC3N(CCC(C)(C)C)C1=O)N2)S(C)(=O)=O (stereo not drawn) [Example 36, N-{3-[1-(3,3-Dimethyl-butyl)-4-hydroxy-2-oxo-1,2,4a,5,6,7,8,9,10,10a-decahydro-cycloocta[b]pyridin-3-yl]-1,1-dioxo-1,4-dihydro-1λ^6-benzo[1,2,4]thiadiazin-7-yl]-N-methyl-methanesulfonamide]	1000 to 100000
O=C1C(C2=NS(=O)(=O)c3cc(I)ccc3N2)=C(O)[C@@H]2CCC[C@@H]2N1Cc1ccc(F)cc1 [Example 39, (4aR,7aS)-1-(4-Fluoro-benzyl)-4-hydroxy-3-(7-iodo-1,1-dioxo-1,4-dihydro-1λ^6-benzo[1,2,4]thiadiazin-3-yl)-1,4-a,5,6,7,7a-hexahydro-[1]pyrindin-2-one]	1000 to 100000
O=C1C(C2=NS(=O)(=O)c3cc(N4CCCCC4)ccc3N2)=C(O)[C@@H]2CCC[C@@H]2N1Cc1ccc(F)cc1 [Example 42, (4aR,7aS)-3-(1,1-Dioxo-7-piperidin-1-yl-1,4-dihydro-1λ^6-benzo[1,2,4]thiadiazin-3-yl)-1-(4-fluoro-benzyl)-4-hydroxy-1,4-a,5,6,7,7a-hexahydro-[1]pyrindin-2-one]	1000 to 100000
O=C1C(C2=NS(=O)(=O)c3cc(I)ccc3N2)=C(O)C2CCCCCC2N1Cc1ccc(F)cc1 (stereo not drawn) [Example 46, 1-(4-Fluoro-benzyl)-4-hydroxy-3-(7-iodo-1,1-dioxo-1,4-dihydro-1λ^6-benzo[1,2,4]thiadiazin-3-yl)-1,4-a,5,6,7,8,9,9a-octahydro-cyclohepta[b]pyridin-2-one]	1000 to 100000
CS(=O)(=O)Nc1ccc2c(c1)S(=O)(=O)N=C(C1=C(O)C3CCCCC3N(C3CCCCC3)C1=O)N2 (stereo not drawn) [Example 49, N-[3-(1-Cyclohexyl-4-hydroxy-2-oxo-1,2,4a,5,6,7,8,8a-octahydro-quinolin-3-yl)-1,1-dioxo-1,4-dihydro-1λ^6-benzo[1,2,4]thiadiazin-7-yl]-methanesulfonamide]	100 to 1000
O=C1C(C2=NS(=O)(=O)c3cc(I)ccc3N2)=C(O)C2CCCCC2N1Cc1ccc(F)cc1 (stereo not drawn) [Example 50, 1-(4-Fluoro-benzyl)-4-hydroxy-3-(7-iodo-1,1-dioxo-1,4-dihydro-1λ^6-benzo[1,2,4]thiadiazin-3-yl)-4-a,5,6,7,8,8a-hexahydro-1H-quinolin-2-one]	1000 to 100000
O=C1C(C2=NS(=O)(=O)c3cc(NS(=O)(=O)Cc4ccccc4)ccc3N2)=C(O)[C@@H]2CCC[C@@H]2N1Cc1ccc(F)cc1 [Example 52, (4aR,7aS)-N-{3-[1-(4-Fluoro-benzyl)-4-hydroxy-2-oxo-2,4a,5,6,7,7a-hexahydro-1H-[1]pyrindin-3-yl]-1,1-dioxo-1,4-dihydro-1λ^6-benzo[1,2,4]thiadiazin-7-yl}-C-phenyl-methanesulfonamide]	100 to 1000
CS(=O)(=O)Nc1ccc2c(c1)S(=O)(=O)N=C(C1=C(O)C3CCCCCC3NC1=O)N2 (stereo not drawn) [Example 59, N-[3-(4-Hydroxy-2-oxo-2,4a,5,6,7,8,9,9a-octahydro-1H-cyclohepta[b]pyridin-3-yl)-1,1-dioxo-1,4-dihydro-1λ^6-benzo[1,2,4]thiadiazin-7-yl]-methanesulfonamide]	1000 to 100000

Now from value to compound:

IC50 [nM]	SMILES
< 20	CC(C)(C)CCN1C(=O)C(C2=NS(=O)(=O)c3cc(NS(C)(=O)=O)ccc3N2)=C(O)[C@@H]2CCC[C@@H]21 [Example 29, (4aR,7aS)—N-{3-[1-(3,3-Dimethyl-butyl)-4-hydroxy-2-oxo-2,4-a,5,6,7,7a-hexahydro-1H-[1]pyrindin-3-yl]-1,1-dioxo-1,4-dihydro-1λ^6-benzo[1,2,4]thiadiazin-7-yl]-methanesulfonamide]
100 to 1000	CS(=O)(=O)Nc1ccc2c(c1)S(=O)(=O)N=C(C1=C(O)[C@@H]3CCC[C@@H]3N(CC3CC3)C1=O)N2 [Example 30, (4aR,7aS)—N-[3-(1-Cyclopropylmethyl-4-hydroxy-2-oxo-2,4-a,5,6,7,7a-hexahydro-1H-[1]pyrindin-3-yl)-1,1-dioxo-1,4-dihydro-1λ^6-benzo[1,2,4]thiadiazin-7-yl]-methanesulfonamide]
20 to 100	CS(=O)(=O)Nc1ccc2c(c1)S(=O)(=O)N=C(C1=C(O)[C@H]3CCCC[C@H]3N(Cc3ccc(F)cc3)C1=O)N2 [Example 31, (4aS, 8aR)—N-{3-[1-(4-Fluoro-benzyl)-4-hydroxy-2-oxo-1,2,4a,5,6,7,8,8a-octahydro-quinolin-3-yl]-1,1-dioxo-1,4-dihydro-1λ^6 benzo[1,2,4]thiadiazin-7-yl]-methanesulfonamide]
20 to 100	CC(C)(C)CCN1C(=O)C(C2=NS(=O)(=O)c3cc(NS(C)(=O)=O)ccc3N2)=C(O)C2CCCCCC21 (stereo not drawn) [Example 32, N-{3-[1-(3,3-Dimethyl-butyl)-4-hydroxy-2-oxo-2,4-a,5,6,7,8,9,9a-octahydro-1H-cyclohepta[b]pyridin-3-yl]-1,1-dioxo-1,4-dihydro-1λ^6-benzo[1,2,4]thiadiazin-7-yl]-methanesulfonamide]
20 to 100	CC(C)CCN1C(=O)C(C2=NS(=O)(=O)c3cc(NS(C)(=O)=O)ccc3N2)=C(O)C2CCCCCC21 (stereo not drawn) [Example 33, N-{3-[4-Hydroxy-1-(3-methyl-butyl)-2-oxo-2,4-a,5,6,7,8,9,9a-octahydro-1H-cyclohepta[b]pyridin-3-yl]-1,1-dioxo-1,4-dihydro-1λ^6-benzo[1,2,4]thiadiazin-7-yl}-methanesulfonamide]
100 to 1000	CC(C)CCN1C(=O)C(C2=NS(=O)(=O)c3cc(N(C)S(C)(=O)=O)ccc3N2)=C(O)C2CCCCCC21 (stereo not drawn) [Example 34, N-{3-[4-Hydroxy-1-(3-methyl-butyl)-2-oxo-2,4-a,5,6,7,8,9,9a-octahydro-1H-cyclohepta[b]pyridin-3-yl]-1,1-dioxo-1,4-dihydro-1λ^6-benzo[1,2,4]thiadiazin-7-yl}-N-methyl-methanesulfonamide]
20 to 100	O=C1C(C2=NS(=O)(=O)c3cc(NS(=O)(=O)c4ccccc4)ccc3N2)=C(O)[C@@H]2CCC[C@@H]2N1Cc1ccc(F)cc1 [Example 40, (4aR,7aS)—N-{3-[1-(4-Fluoro-benzyl)-4-hydroxy-2-oxo-2,4-a,5,6,7,7a-hexahydro-1H-[1]pyrindin-3-yl]-1,1-dioxo-1,4-dihydro-1λ^6-benzo[1,2,4]thiadiazin-7-yl]-benzenesulfonamide]
100 to 1000	O=C1C(C2=NS(=O)(=O)c3cc(C4=CCCS4(=O)=O)ccc3N2)=C(O)[C@@H]2CCC[C@@H]2N1Cc1ccc(F)cc1 [Example 44, (4aR,7aS)-3-[7-(1,1-Dioxo-4,5-dihydro-1H-1λ^6-thiophen-2-yl)-1,1-dioxo-1,4-dihydro-1λ^6-benzo[1,2,4]thiadiazin-3-yl]-1-(4-fluoro-benzyl)-4-hydroxy-1,4a,5,6,7,7a-hexahydro-[1]pyrindin-2-one]
20 to 100	CS(=O)(=O)Nc1ccc2c(c1)S(=O)(=O)N=C(C1=C(O)C3CCCCCC3N(NC3CCC3)C1=O)N2 (stereo not drawn) [Example 60, N-[3-(1-Cyclobutylamino-4-hydroxy-2-oxo-2,4a,5,6,7,8,9,9a-octahydro-1H-cyclohepta[b]pyridin-3-yl)-1,1-dioxo-1,4-dihydro-1λ^6-benzo[1,2,4]thiadiazin-7-yl]-methanesulfonamide trifluoroaceticacid salt]
